# In publication PMC11154717, “Evaluation of Novel Spiro-pyrrolopyridazine Derivatives as Anticancer Compounds: In Vitro Selective Cytotoxicity, Induction of Apoptosis, EGFR Inhibitory Activity, and Molecular Docking Analysis” (ACS Omega, 2024):
# Read-outs that look alike come from different tables or passages of the source.
# How the values were obtained:
# Bcl-2 = test: Western blot, Bcl-2 protein level; assay type: cell-based, human
# Protocol: (§1) For the extraction of total proteins, the M-PER Mammalian Protein Extraction Reagent from Thermo Fisher was utilized. Specifically, cells were treated with 250 μL of the extraction reagent and incubated at room temperature for 10 min with gentle shaking at 300 rpm. After this step, the cell suspension underwent centrifugation at 14,000g for 10 min, and the resulting supernatant was collected. Determination of the protein concentration was carried out using the Bradford method. Following this, protein separation was accomplished through SDS polyacrylamide gel electrophoresis, followed by transfer to nitrocellulose membranes. Post transfer, the membranes underwent blocking with 5% nonfat dry milk for 1 h and were subjected to three washes with Tris-buffered saline (TBS). Incubation with primary antibodies (Bcl-2: Anti-Bcl-2 antibody [ab196495, Abcam]; Bax: Anti-Bax antibody [ab216494, Abcam]; cytochrome c: Anticytochrome c antibody [ab4051]; EGFR: Anti-EGFR antibody [ab32077]) occurred overnight at 4 °C. β-Actin served as the loading control. After the washing steps, the membranes were exposed to secondary antibodies for 1 h at room temperature (1:1000 dilution). Visualization of protein bands was performed using the Kodak Gel Logic 1500 imaging system, and quantification was carried out using ImageJ software.[16]
# Bax = test: Western blot, Bax protein level; assay type: cell-based, human
# Protocol: as §1
# H69AR lung cancer cells [1] = test: Annexin V/PI flow cytometric detection of apoptosis, H69AR; assay type: cell-based, human; details: treated at IC50, 72 h
# Source text: (§2) During apoptosis, PS translocates from the inner to outer regions of the plasma membrane, making it a valuable marker for apoptosis identification. Annexin V specifically attaches to PS present on the surface of apoptotic cells. To differentiate between apoptotic and viable cells with intact membranes, a secondary dye such as […] (PI) is employed. By assessing fluorescence patterns, viable cells (annexin V- and PI-) and apoptotic cells (annexin V+ and PI+) can be distinguished, providing insights into their respective percentages. We used FITC Annexin V Apoptosis Detection Kit I (BD Pharmingen).[15] […] Subsequently, cells were washed with cold PBS, resuspended in […] of 1× Binding Buffer, and stained with 5 μL of Annexin V FITC and 5 μL of PI. After vortexing, the solution was incubated at room temperature (25 °C) for 15 min in the dark. At the end of the incubation, 400 μL of 1× Binding Buffer was added to each sample, and apoptosis was assessed using flow cytometry (BD Accuri C6 Flow Cytometer).
# [2] = test system: PC-3 prostate cancer cells; test: XTT cell viability assay, PC-3; assay type: cell-based, human
# Protocol: (§3) Human breast cancer (MCF-7), human lung cancer (H69AR), and human prostate cancer (PC-3) human nontumorigenic HEK-293 cells were obtained from the Health Protection Agency (UK) and Interlab Cell Line Collection (ICLC, Italy). Cells were maintained in RPMI medium (Sigma) containing 10% heat-inactivated fetal bovine serum, 1% penicillin, and 1% L-glutamine in a 37° humidified CO2 incubator.
# (§4) XTT (2,3-bis(2-methoxy-4-nitro-5-sulfophenyl)-2H-tetrazolium-5-carboxanilide) cell viability test was used to determine the cytotoxic activities of SPPs, which were dissolved in dimethyl sulfoxide (DMSO). Cells were seeded in 96-well plates at a density of 10^4/well and treated with increasing concentrations of SPP (1–250 μM) for 24, 48, and 72 h. After the incubation period, 100 μL of XTT was added to all experimental wells, and 96-well plates were incubated at 37 °C for 4 h. After the color change was observed, the absorbance values of the wells were recorded at 570 nm in the microplate reader (Tecan). The IC50 values for all synthesized compounds, representing the concentration needed to inhibit 50% of cancer cell proliferation, were determined using Biosoft CalcuSyn 2.1 software.[13] The following formula was used to calculate selectivity indexes (SIs), which represent the cytotoxic selectivity of SPPs against cancer cells and normal cells (HEK-293): […]
# [3] = test system: nontumorigenic HEK-293 cells; test: XTT cell viability assay, HEK-293; assay type: cell-based, human; details: Homo sapiens, HEK293, 72 h
# Protocol: as §3, §4
# H69AR lung cancer cells [4] = test: XTT cell viability assay, H69AR; assay type: cell-based, human
# Protocol: as §3, §4
# EGFRWT = test: Western blot, EGFR protein; assay type: cell-based, human; details: 72 h, MCF-7, H69AR and PC-3 cells
# Protocol: as §1
# [5] = test system: PC-3 prostate cancer cells; test: Annexin V/PI flow cytometric detection of apoptosis, PC-3; assay type: cell-based, human; details: PC-3, treated at IC50, 72 h
# Source text: as §2
# EGFRT790M = EGFRT790M (Homo sapiens, UniProt P00533, T790M); test: EGFRT790M kinase inhibitory assay (HTRF); assay type: biochemical; details: read-out: EGFRT790M kinase inhibition IC50
# Protocol: (§5) The inhibitory effects of the target compounds on various EGFR kinases were evaluated through a well-established homogeneous time-resolved fluorescence (HTRF) method-based assay, utilizing the HTRF KinEASE-TK kit (cat #62TK0PEC, Cisbio).[17] SPP10 underwent screening at progressively diluted concentrations in the presence of 1% dimethyl sulfoxide (DMSO), preceded by a 5 min preincubation of the kinase and compounds. Initiation of all reactions occurred by adding ATP and TK-substrate-biotin, followed by a 60 min incubation at room temperature and subsequent quenching with a stop buffer containing 62.5 nM Strep-XL665 and TK antibody (Ab)-Cryptate. Following a 1 h plate incubation, readings were taken on a microplate reader using standard HTRF settings. IC50 values were determined using GraphPad Prism 5.0 software. Each reaction was carried out in duplicate, and a minimum of three independent determinations were performed. The data were analyzed using GraphPad Prism.
# EGFR = EGFR (Homo sapiens, UniProt P00533); test: EGFR kinase inhibitory assay (HTRF); assay type: biochemical; details: read-out: EGFR kinase inhibition IC50
# Protocol: as §5, with “Initiation of all reactions occurred by adding ATP and TK-substrate-biotin, followed by a 60 min incubation at room temperature and subsequent quenching with a stop buffer containing 62.5 nM Strep-XL665 and TK antibody (Ab)-Cryptate.” left out
# [6] = test system: MCF-7 breast cancer cells; test: XTT cell viability assay, MCF-7; assay type: cell-based, human
# Protocol: as §3, §4
# cytochrome c = test: Western blot, cytochrome c protein level; assay type: cell-based, human
# Protocol: as §1
# [7] = test system: MCF-7 breast cancer cells; test: Annexin V/PI flow cytometric detection of apoptosis, MCF-7; assay type: cell-based, human; details: MCF-7, treated at IC50, 72 h
# Source text: as §2
# Chain of EGFR (P00533 25-1210): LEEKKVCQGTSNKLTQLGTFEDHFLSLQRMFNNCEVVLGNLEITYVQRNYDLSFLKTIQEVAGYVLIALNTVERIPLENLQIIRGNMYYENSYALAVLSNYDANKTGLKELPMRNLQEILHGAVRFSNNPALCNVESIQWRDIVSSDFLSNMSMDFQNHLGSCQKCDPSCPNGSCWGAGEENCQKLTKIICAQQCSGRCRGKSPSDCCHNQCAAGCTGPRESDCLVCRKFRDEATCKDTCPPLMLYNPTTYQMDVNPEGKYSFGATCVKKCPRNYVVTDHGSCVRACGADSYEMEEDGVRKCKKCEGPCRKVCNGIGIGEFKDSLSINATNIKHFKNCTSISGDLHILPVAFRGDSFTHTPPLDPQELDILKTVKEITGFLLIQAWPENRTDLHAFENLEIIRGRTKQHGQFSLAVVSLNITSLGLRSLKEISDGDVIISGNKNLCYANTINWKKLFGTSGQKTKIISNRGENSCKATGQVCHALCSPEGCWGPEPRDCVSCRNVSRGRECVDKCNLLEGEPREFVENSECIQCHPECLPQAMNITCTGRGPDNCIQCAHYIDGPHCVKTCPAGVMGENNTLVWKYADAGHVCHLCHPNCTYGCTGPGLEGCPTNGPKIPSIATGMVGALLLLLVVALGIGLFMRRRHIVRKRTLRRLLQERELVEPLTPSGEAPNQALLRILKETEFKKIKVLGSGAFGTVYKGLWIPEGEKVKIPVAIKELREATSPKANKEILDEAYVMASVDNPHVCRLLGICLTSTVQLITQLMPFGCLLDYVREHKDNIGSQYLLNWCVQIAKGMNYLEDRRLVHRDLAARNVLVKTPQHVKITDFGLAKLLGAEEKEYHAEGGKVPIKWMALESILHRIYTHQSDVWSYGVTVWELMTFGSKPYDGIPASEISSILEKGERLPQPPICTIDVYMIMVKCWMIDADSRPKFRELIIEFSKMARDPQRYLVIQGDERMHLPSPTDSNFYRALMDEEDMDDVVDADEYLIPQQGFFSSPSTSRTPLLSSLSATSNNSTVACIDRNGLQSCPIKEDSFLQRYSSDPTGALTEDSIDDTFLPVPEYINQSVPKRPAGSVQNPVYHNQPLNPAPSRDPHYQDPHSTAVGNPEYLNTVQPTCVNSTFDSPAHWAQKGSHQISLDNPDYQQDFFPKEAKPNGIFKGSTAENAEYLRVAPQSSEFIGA
# Chain of EGFRT790M (P00533 25-1210 T790M): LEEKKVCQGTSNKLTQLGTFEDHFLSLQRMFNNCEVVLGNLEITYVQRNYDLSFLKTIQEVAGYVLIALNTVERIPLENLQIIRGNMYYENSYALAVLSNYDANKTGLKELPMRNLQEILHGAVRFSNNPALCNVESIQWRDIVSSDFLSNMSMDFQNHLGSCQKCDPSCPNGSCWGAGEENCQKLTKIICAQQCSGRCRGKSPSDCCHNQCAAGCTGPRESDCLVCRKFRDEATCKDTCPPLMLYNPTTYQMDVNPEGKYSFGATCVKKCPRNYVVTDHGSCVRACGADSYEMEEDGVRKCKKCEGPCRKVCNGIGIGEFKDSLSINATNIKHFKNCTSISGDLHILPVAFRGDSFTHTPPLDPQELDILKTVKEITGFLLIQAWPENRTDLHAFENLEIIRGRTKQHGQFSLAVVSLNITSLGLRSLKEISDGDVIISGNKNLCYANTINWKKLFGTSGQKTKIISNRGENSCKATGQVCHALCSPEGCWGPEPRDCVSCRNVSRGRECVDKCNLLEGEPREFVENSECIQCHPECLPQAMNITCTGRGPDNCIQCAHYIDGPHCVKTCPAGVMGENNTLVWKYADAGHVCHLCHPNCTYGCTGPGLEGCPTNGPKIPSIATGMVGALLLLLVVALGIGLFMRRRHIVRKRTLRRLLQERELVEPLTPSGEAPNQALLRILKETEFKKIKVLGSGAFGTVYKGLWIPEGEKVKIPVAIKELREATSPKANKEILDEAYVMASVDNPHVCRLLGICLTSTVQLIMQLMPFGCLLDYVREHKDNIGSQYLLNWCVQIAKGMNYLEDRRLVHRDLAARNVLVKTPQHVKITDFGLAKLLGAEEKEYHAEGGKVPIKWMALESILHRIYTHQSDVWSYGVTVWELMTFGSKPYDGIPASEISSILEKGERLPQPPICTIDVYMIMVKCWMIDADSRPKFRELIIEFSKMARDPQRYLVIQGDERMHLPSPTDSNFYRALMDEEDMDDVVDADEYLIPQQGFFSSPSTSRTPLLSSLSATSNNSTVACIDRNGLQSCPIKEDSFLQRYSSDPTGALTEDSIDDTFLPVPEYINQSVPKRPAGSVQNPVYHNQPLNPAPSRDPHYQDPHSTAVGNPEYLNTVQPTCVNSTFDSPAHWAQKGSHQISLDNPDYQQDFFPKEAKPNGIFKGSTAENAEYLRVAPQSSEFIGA
compound,measurement,setting,value
c1ccc(-c2nnc(-c3ccccc3)c3c2C(c2ccsc2)=NC32CCCCC2)cc1 [SPP10],Bcl-2 protein level inhibited by,"Bcl-2; H69AR, IC50 of SPP10, 72 h",2.6 fold
same,Bcl-2 protein level inhibited by,"Bcl-2; MCF-7, IC50 of SPP10, 72 h",2.3 fold
same,Bcl-2 protein level inhibited by,"Bcl-2; PC-3, IC50 of SPP10, 72 h",3.2 fold
same,Bax protein level induced by,"Bax; H69AR, IC50 of SPP10, 72 h",4.1 fold
same,Bax protein level induced by,"Bax; MCF-7, IC50 of SPP10, 72 h",3.4 fold
same,Bax protein level induced by,"Bax; PC-3, IC50 of SPP10, 72 h",5.2 fold
same,percentage of early apoptotic cells,H69AR lung cancer cells [1],25.6%
same,percentage of late apoptotic cells,H69AR lung cancer cells [1],61.2%
same,IC50,"[2]; Homo sapiens, XTT, 72 h",4200 ± 200 nM
same,selectivity index (SI) PC-3,[2]; versus HEK-293,6.38
same,IC50,[3],26800 ± 400 nM
same,IC50,"H69AR lung cancer cells [4]; Homo sapiens, H69AR, XTT, 72 h",3160 ± 800 nM
same,selectivity index (SI) H69AR,H69AR lung cancer cells [4]; versus HEK-293,8.48
same,inhibition of EGFRWT protein (western blot),EGFRWT,concentration-dependent inhibition
same,percentage of early apoptotic cells,[5],21.8%
same,percentage of late apoptotic cells,[5],64.9%
same,IC50,EGFRT790M; in H69AR cells,250 ± 700 nM
same,IC50,EGFRT790M; in MCF-7 cells,370 ± 200 nM
same,IC50,EGFRT790M; in PC-3 cells,390 ± 200 nM
same,IC50,EGFR; in H69AR cells,200 nM
same,IC50,EGFR; in MCF-7 cells,400 ± 120 nM
same,IC50,EGFR; in PC-3 cells,420 ± 800 nM
same,IC50,EGFR; span in cancer cells,200 to 420 nM
same,IC50,"[6]; Homo sapiens, MCF7, XTT, 72 h",2310 ± 300 nM
same,selectivity index (SI) MCF-7,[6]; versus HEK-293,11.6
same,Cytochrome c level induced by,"cytochrome c; H69AR, IC50 of SPP10, 72 h",3.6 fold
same,Cytochrome c level induced by,"cytochrome c; MCF-7, IC50 of SPP10, 72 h",3.8 fold
same,Cytochrome c level induced by,"cytochrome c; PC-3, IC50 of SPP10, 72 h",4.4 fold
same,percentage of early apoptotic cells,[7],28.7%
same,percentage of late apoptotic cells,[7],59.3%
